Where a name gives a salt, the structure may show the parent alone.
These compounds were tested on A/PuertoRico/8/1934 (H1N1 H274Y).
Type: cell-based, influenza A virus

| Compound | IC50 |
| --- | --- |
| O=C(c1ccc(OCCCc2cnc[nH]2)cc1)C1CC1 [Ciproxifan] | 5.9 µM |
| CC(COc1ccccc1)NC(C)C(O)c1ccc(O)cc1 (stereo not drawn) [Isoxsuprine, Isoxsuprine hydrochloride] | 9.3 µM |
| CCCN(CCc1cccs1)[C@H]1CCc2c(O)cccc2C1 [Rotigotine] | 8.6 µM |
